One block for each compound: values may come before it.
Tests used:
[1] = biological target: T1, Autotaxin (Homo sapiens, UniProt Q13822); assay: Inhibition of recombinant human ATX expressed in Sf9 cells using FS-3 as substrate measured after 1 hrs by fluorescence based assay
[2] = biological target: T1, Autotaxin; assay: Inhibition of ATX (unknown origin) using […] as substrate
[3] = biological target: T1, Autotaxin; assay: Inhibition of ATX in human blood; assay type: tissue-based
[4] = biological target: Autotaxin (Mus musculus, UniProt Q9R1E6); assay: Inhibition of ATX in mouse plasma; assay type: cell-free
[5] = biological target: T1, Autotaxin; assay: Inhibition of ATX (unknown origin) using FS-3 as substrate
[6] = biological target: T1, Autotaxin; assay: Inhibition of human ATX using LPC as substrate measured after 2 hrs by fluorescence based choline release assay
[7] = biological target: T1, Autotaxin; assay: Inhibition of human ATX using LPC as substrate assessed as choline release measured after 1.5 hrs by fluorescence based assay
[8] = biological target: T1, Autotaxin; assay: Inhibition of human ATX using FS-3 as substrate measured after 1 hrs by fluorescence based […] assay
[9] = Inhibition of hen egg white ATX using LPC as substrate preincubated for 30 mins followed by substrate addition measured after 90 mins by choline release assay; design: species or system Gallus gallus
[10] = biological target: T1, Autotaxin; assay: Inhibition of human ATX using LPC as substrate preincubated for 30 mins followed by substrate addition measured after 90 mins by choline release assay

Structure (SMILES): CS(=O)(=O)N(c1cc(C(=O)Nc2cc(F)c(Cl)c(F)c2)c(Cl)cc1Cl)C1CCOCC1
- IC50 [1]: 0.218 µM

Structure (SMILES): CCCn1cc(-n2c(C)c(Sc3cccc(C(=O)O)c3F)c3ccc(Cl)c(F)c32)cn1
- IC50 [2]: 0.0011 µM
- IC50 [3]: 0.0089 µM
- IC50 [4]: 0.022 µM

Structure (SMILES): O=C(Nc1ccc(Br)cc1)c1cc(S(=O)(=O)N2CCCCC2)c(Cl)cc1Cl
- IC50 [6]: 0.023 µM
- IC50 [8]: 0.021 µM

Structure (SMILES): N#CC1=C(N)Oc2n[nH]c(-c3ccc(OCc4ccc(F)cc4)cc3)c2[C@H]1c1ccc(Cl)c(Cl)c1
- IC50 [9]: 0.087 µM
- IC50 [10]: 0.134 µM

More lines, now with the values ahead:

- IC50 [5]: 0.0027 µM
Structure (SMILES): CCc1nc2c(C)cc(-c3ccc(C(=O)N4CCN(CCO)CC4)cc3)cn2c1NC(=O)OCc1ccc2c(c1)OCO2

- IC50 [6]: 0.0436 µM
Structure (SMILES): O=C(Nc1cccc(F)c1)c1cc(S(=O)(=O)N2CCOCC2)c(Cl)cc1Cl

- IC50 [7]: 0.002 µM
Structure (SMILES): Cc1c(Sc2cccc(C(=O)O)c2F)c2ccc(Cl)c(F)c2n1C(=O)N1CC2(CC2)c2ccccc21

- IC50 [1]: 0.219 µM
Structure (SMILES): CS(=O)(=O)N(c1cc(C(=O)Nc2cc(F)c(F)c(F)c2)c(Cl)cc1Cl)C1CCOCC1
